Assay results as given in patent publication US11390609B2, “Rho-associated protein kinase inhibitor, pharmaceutical composition comprising same, and preparation method and use thereof” (BEIJING TIDE PHARMACEUTICAL CO., LTD., priority 2017, dated 2022).

Tests used:
ROCK2 = ROCK2 (Homo sapiens, UniProt O75116); experiment: ROCK2 kinase IC50 assay (CISBIO HTRF KinEASE-STK S2 kit); type: biochemical; conditions: incubated at room temperature for 2 hours
Method: The kinase IC50 was determined by a commercialized CISBIO kinase detection kit, HTRF KinEASE-STK S2 kit (62ST2PEC). ROCK2 (01-119) employed in the reaction was purchased from Carna Biosciences.
Before the assay, the following working solutions as needed were formulated with corresponding reagents according to the instruction of the kinase detection kit: 1×kinase buffer, 5×STK-52 substrate working solution (1.5 μM) and 5×ATP working solution (1.5 μM), 5×ROCK2 kinase working solution, 4×Streptavidin-XL665 working solution, and 4×STK-Ab-Cryptate 2 detection solution. Then the assay was performed according to the following procedure.
A solution of a compound at a concentration of 10000 nM was prepared with the 1×kinase buffer containing 2.5% DMSO. Gradient dilution of the solution of the compound was performed with the kinase buffer containing DMSO, so as to obtain solutions of a test compound at 9 different concentrations. In addition to wells of test compounds, a positive well (containing all the reagents except the compound) and a negative well (containing all the reagents except the test compound and kinase) were set. Except for the control wells (positive and negative wells), a solution of a test compound (4 μL) was added to each of the reaction wells, and a solution of 2.5% DMSO was added to the control wells. Then the substrate ([…], 2 μL. 5×STK-S2 substrate working solution) was added to each of the reaction wells. The 5×ROCK2 kinase working solution (2 μL, containing 1.4 ng ROCK2 kinase) was added to each of the reaction wells except for the negative well, the volume of which was made up with the 1×kinase buffer (2 μL). The 5×ATP working solution (2 μL) was added to each of the reaction wells, and the mixtures were incubated at room temperature for 2 hours. After the kinase reaction was complete, the 4×Streptavidin-XL665 working solution was added to each of the reaction wells, the solutions were mixed, followed by immediate addition of the 4×STK-Ab-Cryptate 2 detection solution (5 μL), and the mixtures were incubated at room temperature for 1 hour. The fluorescence signal was read on ENVISION (Perkinelmer) (excitation wavelength: 320 nm, and emission wavelength: 665 nm and 615 nm). The inhibitory rate in each well was calculated based on the fluorescence intensity value: ER (Emission Ratio)=(fluorescence intensity at 665 nm/fluorescence intensity at 615 nm); inhibitory rate=(ERpositive−ERtest compound)/(ERpositive−ERnegative)*100%. Curves were plotted and fitted to obtain the median inhibitory concentration (IC50) of each teat compound with the PRISM 5.0 software.

ROCK1 = ROCK1 (Homo sapiens (Human), UniProt Q13464); experiment: ROCK1 kinase IC50 assay (biological test method similar to the ROCK2 assay); type: biochemical
Sequence of ROCK1 (Q13464 whole entry, species assumed): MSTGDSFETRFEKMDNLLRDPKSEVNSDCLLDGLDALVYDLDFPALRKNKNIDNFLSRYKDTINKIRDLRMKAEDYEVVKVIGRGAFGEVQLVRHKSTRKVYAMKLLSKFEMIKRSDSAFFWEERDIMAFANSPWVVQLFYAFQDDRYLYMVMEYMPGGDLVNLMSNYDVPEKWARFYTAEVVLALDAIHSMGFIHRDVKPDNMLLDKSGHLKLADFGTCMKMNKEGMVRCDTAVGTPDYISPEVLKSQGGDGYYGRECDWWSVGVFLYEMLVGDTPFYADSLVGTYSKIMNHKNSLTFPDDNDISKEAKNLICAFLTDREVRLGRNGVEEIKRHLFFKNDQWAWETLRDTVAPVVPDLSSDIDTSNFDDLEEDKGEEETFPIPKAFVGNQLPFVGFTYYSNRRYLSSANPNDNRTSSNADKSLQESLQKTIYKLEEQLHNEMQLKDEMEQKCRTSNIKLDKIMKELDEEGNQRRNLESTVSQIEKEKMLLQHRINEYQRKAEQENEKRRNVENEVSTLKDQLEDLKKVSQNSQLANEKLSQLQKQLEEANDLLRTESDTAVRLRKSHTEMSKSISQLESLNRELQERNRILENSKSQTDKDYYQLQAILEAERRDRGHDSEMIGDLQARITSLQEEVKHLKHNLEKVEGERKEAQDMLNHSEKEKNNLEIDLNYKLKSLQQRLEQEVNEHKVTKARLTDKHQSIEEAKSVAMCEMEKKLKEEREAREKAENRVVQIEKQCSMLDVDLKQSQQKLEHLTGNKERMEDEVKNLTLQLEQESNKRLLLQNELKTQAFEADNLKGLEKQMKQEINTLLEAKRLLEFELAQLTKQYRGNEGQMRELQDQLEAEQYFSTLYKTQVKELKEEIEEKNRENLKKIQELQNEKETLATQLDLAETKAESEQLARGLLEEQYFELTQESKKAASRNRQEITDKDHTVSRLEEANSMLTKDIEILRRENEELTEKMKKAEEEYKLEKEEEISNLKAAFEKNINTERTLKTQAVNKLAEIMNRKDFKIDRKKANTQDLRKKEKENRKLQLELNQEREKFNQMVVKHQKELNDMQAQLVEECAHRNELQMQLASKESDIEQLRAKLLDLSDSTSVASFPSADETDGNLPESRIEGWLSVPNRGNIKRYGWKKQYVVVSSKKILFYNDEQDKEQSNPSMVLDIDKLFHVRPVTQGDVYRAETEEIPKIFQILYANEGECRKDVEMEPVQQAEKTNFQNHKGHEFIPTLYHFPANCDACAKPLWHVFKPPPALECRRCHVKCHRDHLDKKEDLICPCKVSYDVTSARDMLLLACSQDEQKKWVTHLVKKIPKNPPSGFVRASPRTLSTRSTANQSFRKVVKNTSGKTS
In short: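 Compound dilution series (9 concentrations, top solution 10000 nM, DMSO-containing buffer) incubated 2 h at room temperature with kinase, STK-S2 substrate and ATP (5× working solutions of 1.5 µM each). Phosphorylation detected by HTRF (665/615 nm emission ratio) after 1 h; inhibition relative to full-reaction and kinase-free wells, fitted for IC50.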

SMILES | IC50 (ROCK2) | IC50 (ROCK1)
O=C(NC1CC(F)C1)c1cc2ccc(-c3nc(Nc4ccc(-c5cn[nH]c5)cc4)c4sccc4n3)cc2[nH]1 (centres unmarked) [TDI01487, 6-(4-((4-(1H-pyrazol-4-yl)phenyl)amino)thieno [3,2-d]pyrimidin-2-yl)-N-(3-fluorocyclobutyl)-1H-indole-2-carboxamide] | 193 nM | 5.04 µM
O=C(c1cc2ccc(-c3nccc(Nc4ccc(-c5cn[nH]c5)cc4)n3)cc2[nH]1)N1CC2C(C1)C2(F)F (centres unmarked) [TDI01490, (6-(4-((4-(1H-pyrazol-4-yl)phenyl)amino)pyrimidin-2-yl)-1H-indol-2-yl)(6,6-difluoro-3-azabicyclo[3.1.0]hexan-3-yl)methanone] | 81 nM | 2.25 µM
O=C(c1cc2ccc(-c3nccc(Nc4ccc(-c5cn[nH]c5)cc4)n3)cc2[nH]1)N1CCS(=O)(=O)CC1 [TDI01497, (6-(4-((4-(1H-pyrazol-4-yl)phenyl)amino)pyrimidin-2-yl)-1H-indol-2-yl)(1,1-dioxidothiomorpholino) methanone] | 319 nM | > 10 µM
O=C(c1cc2ccc(-c3nccc(Nc4ccc(-c5cn[nH]c5)cc4)n3)cc2[nH]1)N1CC(=NO)C1 [TDI01498, (6-(4-((4-(1H-pyrazol-4-yl)phenyl)amino)pyrimidin-2-yl)-1H-indol-2-yl)(3-(hydroxyimino)azetidin-1-yl)methanone] | 415 nM | > 10 µM
N#CC1CN(C(=O)c2cc3ccc(-c4nccc(Nc5ccc(-c6cn[nH]c6)cc5)n4)cc3s2)C1 [TDI01500, 1-(6-(4-((4-(1H-pyrazol-4-yl)phenyl)-amino)-pyrimidin-2-yl)benzo[b]-thiophene-2-carbonyl)-azetidine-3-carbonitrile] | 13 nM | > 10 µM
Cn1c(C(=O)N2CCC(O)(C(F)(F)F)C2)cc2ccc(-c3nccc(Nc4ccc(-c5cn[nH]c5)cc4)n3)cc21 (centres unmarked) [TDI01505, (6-(4-((4-(1H-pyrazol-4-yl)phenyl)amino)pyrimidin-2-yl)-1-methyl-1H-indol-2-yl) (3-hydroxy-3-(trifluoromethyl)pyrrolidin-1-yl)methanone] | 209 nM | 5.67 µM
Cn1c(C(=O)N2CCC(C(F)(F)F)C2)cc2ccc(-c3nccc(Nc4ccc(-c5cn[nH]c5)cc4)n3)cc21 (centres unmarked) [TDI01506, (6-(4-((4-(1H-pyrazol-4-yl)phenyl)amino)pyrimidin-2-yl)-1-methyl-1H-indol-2-yl)(3-(trifluoromethyl)pyrrolidin-1-yl) methanone] | 295 nM | 7.3 µM
Cn1c(C(=O)N2CCC(F)(F)C2)cc2ccc(-c3nccc(Nc4ccc(-c5cn[nH]c5)cc4)n3)cc21 [TDI01507, (6-(4-((4-(1H-pyrazol-4-yl)phenyl)amino)pyrimidin-2-yl)-1-methyl-1H-indol-2-yl)(3,3-difluoropyrrolidin-1-yl)methanone] | 113 nM | 6.84 µM
Cn1c(C(=O)N2CC(F)(F)C2)cc2ccc(-c3nc(Nc4ccc(-c5cn[nH]c5)cc4)c4sccc4n3)cc21 [TDI01508, (6-(4-((4-(1H-pyrazol-4-yl)phenyl)amino)thieno[3,2-d]pyrimidin-2-yl)-1-methyl-1H-indol-2-yl)(3,3-difluoroazetidin-1-yl)methanone] | 159 nM | > 10 µM
Cn1c(C(=O)N2CC3C(C2)C3(F)F)cc2ccc(-c3nccc(Nc4ccc(-c5cn[nH]c5)cc4)n3)cc21 (centres unmarked) [TDI01512, (6-(4-((4-(1H-pyrazol-4-yl)phenyl)amino)pyrimidin-2yl)-1-methyl-1H-indol-2-yl)(6,6-difluoro-3-azabicyclo[3.1.0]hexan-3-yl)methanone] | 22 nM | 3.63 µM
Cn1c(C(=O)N2CCC3(C2)CC3(F)F)cc2ccc(-c3nccc(Nc4ccc(-c5cn[nH]c5)cc4)n3)cc21 (centres unmarked) [TDI01513, (6-(4-{(4-(1H-pyrazol-4-yl)phenyl)amino)pyrimidin-2-yl)-1-methyl-1H-indol-2-yl)(1,1-difluoro-5-azaspiro[2.4]heptan-5-yl)methanone] | 269 nM | 7.42 µM
Cn1c(C(=O)N2C[C@@H](F)[C@@H](F)C2)cc2ccc(-c3nccc(Nc4ccc(-c5cn[nH]c5)cc4)n3)cc21 [TDI01514, (6-(4-((4-(1H-pyrazol-4-yl)phenyl)amino)pyrimidin-2-yl)-1-methyl-1H-indol-2-yl) ((3S,4R)-3,4-difluoropyrrolidin-1-yl)methanone] | 49 nM | 2.73 µM
Cn1c(C(=O)N2CC(=CC#N)C2)cc2ccc(-c3nccc(Nc4ccc(-c5cn[nH]c5)cc4)n3)cc21 [TDI01515, 2-(1-(6-(4-((4-(1H-pyrazol-4-yl)phenyl)amino)pyrimidin-2-yl)-1-methyl-1H-indole-2-carbonyl)azetidin-3-ylidene) acetonitrile] | 110 nM | 6.86 µM
CC(=O)C1CN(C(=O)c2cc3ccc(-c4nccc(Nc5ccc(-c6cn[nH]c6)cc5)n4)cc3n2C)C1 [TDI01517, 1-(1-(6-(4-((4-(1H-pyrazol-4-yl)phenyl)amino)pyrimidin-2-yl)-1-methyl-1H-indole-2-caibonyl)azetidin-3-yl)ethan-1-one] | 92 nM | > 10 µM
Cn1c(C(=O)N2C[C@@H](O)[C@H](F)C2)cc2ccc(-c3nccc(Nc4ccc(-c5cn[nH]c5)cc4)n3)cc21 [TDI01518, (6-(4-((4-(lH-pyrazol-4-yl)phenyl)amino)pyrimidin-2-yl)-1-methyl-1H-indol-2-yl)((3R,4R)-3-fluoro-4-hydroxypyrrolidin-1-yl)methanone] | 78 nM | 3.03 µM
Cn1c(C(=O)N2C[C@@H](F)[C@H](Br)C2)cc2ccc(-c3nccc(Nc4ccc(-c5cn[nH]c5)cc4)n3)cc21 [TDI01519, (6-(4-((4-(1H-py razol-4-yl)phenyl)amino)pyrimidin-2-yl)-1-methyl-1H-indol-2-yl)((3R,4R)-3-bromo-4-fluoropyrrolidin-1-yl)methanone] | 102 nM | 5.24 µM
Cn1c(C(=O)N2C[C@@H](O)[C@@H](F)C2)cc2ccc(-c3nccc(Nc4ccc(-c5cn[nH]c5)cc4)n3)cc21 [TDI01520, (6-(4-((4-(1H-pyrazol-4-yl)phenyl)amino)pyrimidin-2-yl)-1-methyl-1H-indol-2-yl)((3S,4R)-3-fluoro-4-hydroxypyrrolidin-1-yl)methanone] | 15 nM | > 10 µM
Cn1c(C(=O)N2CC(O)(C(F)(F)F)C2)cc2ccc(-c3nccc(Nc4ccc(-c5cn[nH]c5)cc4)n3)cc21 [TDI01523, (6-(4-((4-(1H-pyrazol-4-yl)phenyl)amino)pyrimidin-2-yl)-1-methyl-1H-indol-2-yl)(3-hydroxy-3-(trifluoromethyl)azetidin-1-yl)methanone] | 86 nM | 1.89 µM
Cn1c(C(=O)N2CC(F)(CF)C2)cc2ccc(-c3nccc(Nc4ccc(-c5cn[nH]c5)cc4)n3)cc21 [TDI01524, (6-(4-((4-(1H-pyrazol-4-yl)phenyl)amino)pyrimidin-2-yl)-1-methyl-1H-indol-2-yl)(3-fluoro-3-(fluoromethyl)azetidin-1-yl)methanone] | 30 nM | 1.42 µM
O=C(c1cc2ccc(-c3nc(Nc4ccc(-c5cn[nH]c5)cc4)c4sccc4n3)cc2s1)N1CC(F)(F)C1 [TDI01525, (6-(4-((4-(1H-pyrazol-4-yl)phenyl)-amino)thieno-[3,2-d]-pyrimidin-2-yl)benzo[b]-thiophen-2-yl)(3,3-difluoro-azetidin-1-yl)methanone] | 335 nM | > 10 µM
Cn1c(C(=O)N2CC(F)(F)C2)cc2ccc(-c3ncnc(Nc4ccc(-c5cn[nH]c5)cc4)n3)cc21 [TDI01532, (6-(4-((4-(1H-pyrazol-4-yl)phenyl)amino)-1,3,5-triazin-2-yl)-1-methyl-1H-indol-2-yl)(3,3-difluoroazetidin-1-yl)methanone] | 49 nM | > 10 µM
O=C(C1CC(F)(F)C1)N1Cc2ccc(-c3ncnc(Nc4ccc(-c5cn[nH]c5)cc4)n3)cc2C1 [TDI01536, (5-(4-((4-(1H-pyrazol-4-yl)phenyl)amino)-1,3,5-triazin-2-yl)isoindolin-2-yl)(3,3-difluorocyclobutyl)methanone] | 105 nM | > 10 µM
